Laboratory results reported in patent publication US20240002326A1, “COMPOUNDS AND USE THEREOF IN METHODS OF TREATMENT” (The University of Queensland, priority 2016, published 2024).

Tests used:
[1] = Cytotoxicity assay (Alamar blue), HEK293; format: cell-based; conditions: human, HEK293 cells; HEK293, 24 h
Protocol: (§1) Cell toxicity was determined using Alamar blue, as previously described (McMillian et al., 2002). COS-7 cells were seeded as 7000 cells per well in black wall clear bottom 96-well plates in DMEM medium (Life Technologies Australia) with 10% FBS. HepG2 and HEK293 cell lines, from ATCC, were seeded as 5000 cells per well in black wall clear bottom 384-well cell culture plates in DMEM with 1% FBS. Cells were cultured for 24 h at 37° C., 5% CO2. A serial dilution of compounds was added, with a final DMSO concentration adjusted to 0.5% v/v. Cells were incubated for another 24 h. 1 Triton X-100 was used as negative control, and 0.5% DMSO as positive control. 5 μM Alamar blue was added to each well and fluorescence was measured (λexc=560 nm, λem=590 nm) after 2 h incubation at 37° C. Data were analysed using Prism software.

[2] = molecular target: SOX18-RBPJ interaction (Homo sapiens (Human), UniProt P35713); assay: ALPHAScreen SOX18-RBPJ protein-protein interaction; format: binding; conditions: 5 μM
Excerpt: Proteins were genetically encoded with enhanced GFP (GFP), mCherry and cMyc (myc) tags, and cloned into cell free expression Gateway destination vectors: N-terminal GFP tagged (pCellFree_G03), N-terminal Cherry-cMyc (pCellFree_G07) and C-terminal Cherry-cMyc tagged (pCellFree_G08) (Gagoski et al., 2015). Human RBPJ (BC020780) and MEF2C (BC026341) Open Reading Frames (ORFs) were sourced from the Human ORFeome collection, version 1.1 and 5.1, and the Human Orfeome collaboration OCAA collection (Open Biosystems), as previously described (Sierecki et al., 2013) and cloned at the ARVEC facility, UQ Diamantina Institute. The entry clones pDONOR223 or pENTR201 vectors were exchanged with the ccdB gene in the expression plasmid by LR recombination (Life Technologies, Australia). The full-length human SOX18 gene was synthesized and the transfer to vectors was realized using Gateway PCR cloning. Translation competent Leishmania tarentolae extract (LTE) was prepared as previously described (Kovtun et al., 2011, Mureev et al., 2009). Protein pairs were co-expressed by adding 30 nM of GFP template plasmid and 60 nM of Cherry template plasmid to LTE and incubating for 3 hours at 27° C.
ALPHAScreen was performed as previously described (Sierecki et al., 2014, Sierecki et al., 2013). […] Percentage of interaction was calculated as: (I_cpd/I_DMSO)×100 from 3 independent experiments.
(§2) ALPHAScreen was performed as previously described (Sierecki et al., 2014, Sierecki et al., 2013), using the cMyc detection kit and Proxiplate-384 Plus plates (PerkinElmer). The LTE lysate co-expressing the proteins of interest was diluted in buffer A (25 mM HEPES, 50 mM NaCl). For the assay, 12.5 μL (0.4 μg) of Anti-cMyc coated Acceptor Beads in buffer B (25 mM HEPES, 50 mM NaCl, 0.001% NP40, 0.001% casein) were aliquoted into each well. This was followed by the addition of 2 μL of diluted sample, at different concentration, and 2 μL of biotin labeled GFP-Nanotrap in buffer A. The plates were incubated for 45 min at room temperature, then adding 2 μL (0.4 μg) of streptavidin-coated Donor Beads diluted in buffer A, and incubation in the dark for 45 min at room temperature. The ALPHAScreen signal was measured on an Envision Plate Reader (PerkinElmer), using manufacturer's recommended settings (λexc=680/30 nm for 0.18 s, λem=570/100 nm after 37 ms). The resulting bell-shaped curve is an indication of a positive interaction, while a flat line reflects a lack of interaction between the proteins. The measurement of each protein pair was repeated in triplicate.
(§3) I is the highest signal level (top of the hook effect curve) and Ineg is the lowest (background) signal level. The signals were normalized to the Iref signal obtained for the strongest interaction. […] Percentage of interaction was calculated as: […]
The ALPHA-Screen Assay was performed as previously described (Sierecki et al. 2014), using the cMyc detection kit and Proxiplate-384 Plus plates (PerkinElmer). A serial dilution of each sample was measured. The LTE lysate co-expressing the proteins of interest was diluted in buffer A (25 mM HEPES, 50 mM NaCl). For the assay, 12.5 μL (0.4 μg) of Anti-cMyc coated Acceptor Beads in buffer B (25 mM HEPES, 50 mM NaCl, 0.001% NP40, casein) were aliquoted into each well. This was followed by the addition of 2 μL of diluted sample and 2 μL of biotin labeled GFP-Nanotrap in buffer A. The plate was incubated for 45 min at RT. Afterward, 2 μL (0.4 μg) of Streptavidin coated Donor Beads diluted in buffer A, were added, followed by incubation in the dark for 45 min at RT. The ALPHA-Screen signal was obtained on an Envision Multilabel Plate Reader (PerkinElmer), using the manufacturer's recommended settings (excitation: 680/30 nm for 0.18 s, emission: 570/100 nm after 37 ms). The resulting bell-shaped curve is an indication of a positive interaction, while a flat line reflects a lack of interaction between the proteins. […]

[3] = Cytotoxicity assay (Alamar blue), HepG2; format: cell-based; conditions: human, HepG2 cells; HepG2, 24 h
[4] = molecular target: SOX18[109] HMG fragment (Mus musculus (Mouse), UniProt P43680); assay: FP DNA-binding competition assay, SOX18[109] HMG fragment; conditions: SOX18/DNA binding; for remaining activity at 50 µM: read-out: FP bound fraction (%) 50 μM; for remaining activity at 200 µM: read-out: FP bound fraction (%) 200 μM
Protocol: Mouse SOX HMG fragments. The HMG domains of mouse SOX2 (Group B), SOX11 (Group C), SOX6 (Group D), SOX9 (Group E), SOX18 (Group F) and SOX15 (Group G) were BP cloned from cDNA templates (IMAGE cDNA clone IDs: Sox18: 3967084; Sox9: 5354229; Sox4: 6822618) into a pDONRTM221 pENTRY vector, sequenced and recombined into a pETG20A or a pHisMBP expression plasmid using Gateway®LR Technology (Ng et al., 2012). Constructs were transformed into Escherichia coli BL21(DE3) cells (Luria-Bertani, 100 μg/ml Ampicillin).
The DNA-binding competition assay was performed in black 384-well plates, with mouse full length SOX18, or SOX-HMG fragments. All experiments were performed using a fluorescently-labelled Prox1-DNA element. Controls consisted of free labelled DNA (low FP milli-Polarization index, mP), labelled DNA in presence of protein (negative control, high mP), and labelled DNA and protein in presence of competing excess of unlabelled DNA (positive control, low mP)
The DNA-binding competition assay was performed in 25 uL, in black 384-well plates, using either 30 mM HEPES (N-2-Hydroxyethylpiperazine-N′-2-Ethanesulfonic Acid) (pH 7.5, with 100 mM KCl, 40 mM NaCl, 10 mM NH4OAc, […], 2 mM MgCl2, 0.5 mM EDTA, 0.01% NP-40) for mouse full length SOX18, or Tris-NaCl (10 mM Tris pH 8.0 and 100 mM NaCl) for SOX-HMG fragments. All experiments were performed using a 40 bp double-stranded Prox1-DNA element with 5′ fluorescein amidite (FAM) label (Sigma Proligo or InVitrogen). Optimum binding levels were obtained at 200 nM of mouse full length SOX18 and 60 nM of SOX-HMG fragment, in presence of 5 nM labelled DNA. Controls consisted of free labelled DNA (low FP milli-Polarization index, mP), labelled DNA in presence of protein (negative control, high mP), and labelled DNA and protein in presence of 400 time competing excess of unlabelled DNA (positive control, low mP). Depending on compound, final DMSO concentrations ranged from 2 to 3.33% v/v. After mixing protein, DNA probe and compound, plates were sealed and briskly agitated in the dark for 5 minutes at room temperature, 10 minutes at 37° C., and 30 minutes at room temperature, before reading fluorescence polarization on a Tecan M1000Pro (λexc=485 nm, λem=525 nm). All experiments were performed in triplicates.
In order to pinpoint the possible binding site of the small molecules, the FP assays were repeated with a shorter, DNA-binding centred protein fragment. The DNA binding domain of SOX TFs consists of the […] amino acid long High Mobility Group (HMG) box. The 109 amino-acid long SOX18 fragment (SOX18[109]) corresponds to residues 69-177 (numbering by mouse SOX18), which includes the HMG box (residues 78-149) and N- and C-terminal flanking sequences of 9 and 28 amino-acids, respectively.

[5] = test system: HEK293; assay: Cytotoxicity assay (Alamar blue), HEK293; format: cell-based; conditions: HEK293, 24 h
Protocol: as §1

[6] = test system: HepG2; assay: Cytotoxicity assay (Alamar blue), HepG2; format: cell-based; conditions: HepG2, 24 h
[7] = molecular target: SOX18-SOX18 homodimer (Homo sapiens (Human), UniProt P35713); assay: ALPHAScreen SOX18-SOX18 homodimerization; format: binding; conditions: 5 uM
Protocol: as §2, §3
The ALPHA-Screen Assay was performed as previously described (Sierecki et al. 2014), using the cMyc detection kit and Proxiplate-384 Plus plates (PerkinElmer). A serial dilution of each sample was measured. The LTE lysate co-expressing the proteins of interest was diluted in buffer A (25 mM HEPES, 50 mM NaCl). For the assay, 12.5 μL (0.4 μg) of Anti-cMyc coated Acceptor Beads in buffer B (25 mM HEPES, 50 mM NaCl, 0.001% NP40, casein) were aliquoted into each well. This was followed by the addition of 2 μL of diluted sample and 2 μL of biotin labeled GFP-Nanotrap in buffer A. The plate was incubated for 45 min at RT. Afterward, 2 μL (0.4 μg) of Streptavidin coated Donor Beads diluted in buffer A, were added, followed by incubation in the dark for 45 min at RT. The ALPHA-Screen signal was obtained on an Envision Multilabel Plate Reader (PerkinElmer), using the manufacturer's recommended settings (excitation: 680/30 nm for 0.18 s, emission: 570/100 nm after 37 ms). The resulting bell-shaped curve is an indication of a positive interaction, while a flat line reflects a lack of interaction between the proteins. The measurement of each protein pair was repeated a minimum of three times using separate plates. The Binding Index was calculated as: BI=[(I−I_neg)/(I_ref−I_neg)]×100
For PPI disruption assay, protein pairs expressed in LTE were incubated for 1 h with 100 μM Sm4 or DMSO alone (0.7% DMSO final). 100 μM Sm4 or DMSO was also added to buffer B. PPI disruption was calculated as: (1−I_Sm4/I_DMSO)×100.
For IC50 determination, the assay was identical but a dilution range of Sm4 was used (0.3 to 300 μM). Percentage of interaction was calculated as: I_Sm4/1 DMSO×100. Data from at least 3 independent experiments were fitted in GraphPad Prism (RRID: SCR_007370) version 6.0 using 3-parameter non-linear regression.

SOX18[109] HMG fragment, sequence (P43680 69-177): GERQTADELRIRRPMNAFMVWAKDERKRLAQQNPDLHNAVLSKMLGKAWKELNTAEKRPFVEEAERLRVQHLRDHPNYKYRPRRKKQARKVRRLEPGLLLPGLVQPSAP
SOX18-SOX18 homodimer, sequence (P35713 whole entry): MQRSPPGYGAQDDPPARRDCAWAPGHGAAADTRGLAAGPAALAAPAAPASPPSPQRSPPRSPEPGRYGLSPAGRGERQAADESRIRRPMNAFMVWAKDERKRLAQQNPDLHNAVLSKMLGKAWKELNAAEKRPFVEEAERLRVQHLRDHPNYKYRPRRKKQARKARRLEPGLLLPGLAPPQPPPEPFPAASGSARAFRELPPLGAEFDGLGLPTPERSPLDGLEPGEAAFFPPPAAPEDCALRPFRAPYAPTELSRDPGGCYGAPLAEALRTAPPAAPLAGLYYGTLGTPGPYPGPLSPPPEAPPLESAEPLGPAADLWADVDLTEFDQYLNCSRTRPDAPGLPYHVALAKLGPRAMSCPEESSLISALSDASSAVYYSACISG
SOX18-RBPJ interaction, sequence (P35713 whole entry): as above

Row | Compound | CC50 at 24 h [1] [µM] | SOX18-RBPJ protein-protein binding inhibition at 5 μM [2] | CC50 at 24 h [3] [µM] | remaining activity at 50 µM [4] [%] | remaining activity at 200 µM [4] [%] | CC50 [5] [µM] | CC50 [6] [µM] | FP bound fraction (%) 50 μM [4] [%] | FP bound fraction (%) 200 μM [4] [%] | inhibitory activity in respect of SOX18-SOX18 homodimerization [7]
1 | CCN(CC)C(=O)c1c(O)cccc1CCc1ccc2ccccc2c1 [Sm18, N,N-diethyl-2-hydroxy-6-(2-(naphthalen-2-yl)ethyl)benzamide] | 38.7 | highly active | 28 | 98.7 ± 5 | 107 ± 21.3 |  |  |  |  | 
2 | O=C(O)c1c(O)cc(Cl)cc1CCc1ccc2ccccc2c1 [Sm33, (E)-4-chloro-2-hydroxy-6-(2-(naphthalen-2-yl)ethyl)benzoic acid] |  |  |  |  |  | 33.4 | 34.5 | 50.1 ± 54.6 | 9.9 ± 2.3 | 
3 | COc1cc(/C=C\c2ccc3ccccc3c2)cc(OC)c1OC [Sm41, (Z)-2-(3,4,5-trimethoxystyryl)naphthalene] | > 100 |  | > 100 | 100 ± 10 | 90.2 ± 46.1 |  |  |  |  | some inhibitory activity
4 | N,N-diethyl-2-methoxy-6-(2-(naphthalene-2-yl)vinyl)benzamide [Sm17] |  |  |  |  |  | 62.6 | 38.5 | 100.3 ± 6.0 | 117.0 ± 10.9 | 
5 | COc1cc(Cl)cc(/C=C/c2ccc3ccccc3c2)c1C(=O)O [Sm31, (E)-4-chloro-2-methoxy-6-(2-(naphthalen-2-yl)vinyl)benzoic acid] | 92.7 |  | > 100 | 97.7 ± 5.9 | 91.7 ± 2.1 |  |  |  |  | some inhibitory activity
6 | COc1cc(/C=C\c2ccccc2)cc(OC)c1OC [Sm37, (Z)-1,2,3-trimethoxy-5-styrylbenzene] | > 100 |  | > 100 | 98.2 ± 7.4 | 104 ± 10.4 |  |  |  |  | some inhibitory activity
7 | COc1cc(O)c(C(=O)O)c(C=Cc2ccc3ccccc3c2)c1 (mixture of isomers) [Sm28, (E/Z)-2-hydroxy-4-methoxy-6-(2-(naphthalen-2-yl)vinyl)benzoic acid] |  |  |  |  |  | 65.1 | 78.9 | 76.3 ± 2.3 | 19.3 ± 8.4 | 
